The text below walks through data of ChEMBL document CHEMBL1201862, “PubChem BioAssay data set” (2004).

Among the test systems are HL-60; A498; NCI-H460; A549; SF-268; LOX IMVI; SK-MEL-5; OVCAR-5; NCI-H23; HCT-15; Malme-3M; COLO 205; IGROV-1; K562; CAKI-1.
Holding throughout (experiment): NCI anticancer screen, dose series, 48 h

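Protocol summary: plate cells (96-well), add compound at 5 concentrations, incubate 48 h, interpolate endpoints linearly. GI50 marks 50% less growth.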 Activity calls are given as the source filed them. Cut-off read from the data, not from the text of the source: active = GI50 up to about 1.1 µM and inactive = higher. Non-standard residues stand in square brackets, D forms with d. Residues, ends and D or L forms follow the SMILES beside them. ξ: configuration not given here. *: point of attachment. NMeF = CN[C@@H](Cc1ccccc1)C(=O)O; ξNMeV = CNC(C(=O)O)C(C)C; Boc = CC(C)(C)OC(=O)*; OBn = c1ccc(CO*)cc1 Some results are limits rather than exact numbers.

For the molecule `Sc1nnc(-c2cccnc2)[nH]1`, the GI50 in the assay with HL-60, in the assay with A498, with NCI-H460, in the assay on A549, in the assay on SF-268 and in the assay with LOX IMVI was > 100 µM (inactive) throughout. The GI50 was > 100 µM (inactive) with SK-MEL-5; > 100 µM (inactive) with OVCAR-5; > 100 µM (inactive) in the assay with NCI-H23; over 100 µM in the assay with HCT-15; > 100 µM (inactive) with Malme-3M; > 100 µM (inactive) with COLO 205.
`CCOC(=O)/C(=C/c1cccc(OC)c1)N(CC)CC`: the GI50 in the assay on HL-60 was > 100 µM (inactive); in the assay with IGROV-1, > 100 µM (inactive); with A498, > 100 µM (inactive); in the assay with NCI-H460, > 10 µM (inactive); in the assay with K562, > 100 µM (inactive); in the assay on A549, > 100 µM (inactive). Also, the GI50 in the assay with SF-268, in the assay on LOX IMVI, in the assay on SK-MEL-5, in the assay on CAKI-1, in the assay with OVCAR-5 and in the assay on NCI-H23 was > 100 µM (inactive) each time. The GI50 is over 100 µM in the assay with HCT-15 and > 100 µM (inactive) in the assay on COLO 205.
In the case of `C=CCCCCCC(O)C(O)C/C=C\C/C=C\CC` (stereo not given), the GI50 in the assay on HL-60 was > 7.71 µM (inactive); in the assay with IGROV-1 it was > 18.8 µM (inactive); in the assay on NCI-H460, 13.5 µM (inactive); with K562, > 12 µM (inactive); with A549, > 18.8 µM (inactive); in the assay with SF-268, > 18.8 µM (inactive). Besides, the GI50 is > 15.4 µM (inactive) in the assay on LOX IMVI; > 17.5 µM (inactive) with SK-MEL-5; > 18.8 µM (inactive) in the assay on CAKI-1; > 18.8 µM (inactive) with OVCAR-5; > 17.8 µM (inactive) with NCI-H23; over 18.8 µM with HCT-15. The GI50 in the assay with Malme-3M and in the assay on COLO 205 was > 18.8 µM (inactive) in each case.
In the case of `Clc1cc2n[se]nc2cc1Cl`, the GI50 in the assay on HL-60 was 84.1 µM (inactive); with IGROV-1, > 100 µM (inactive); in the assay with A498, > 100 µM (inactive); with NCI-H460 it was > 100 µM (inactive); with K562, > 100 µM (inactive); in the assay on A549, > 100 µM (inactive). In addition, the GI50 in the assay with SF-268, in the assay with LOX IMVI, in the assay on SK-MEL-5, in the assay with CAKI-1, in the assay on OVCAR-5 and in the assay with NCI-H23 was > 100 µM (inactive) each time. Also, the GI50 with HCT-15 was over 100 µM; with Malme-3M it was > 100 µM (inactive).
As to `NC(=O)CCC(Nc1c2ccccc2nc2ccccc12)C(=O)O` (stereo not given), the GI50 was 15.3 µM (inactive) with HL-60; 86.9 µM (inactive) in the assay with NCI-H460; 45.7 µM (inactive) with K562; > 100 µM (inactive) in the assay with A549; > 100 µM (inactive) in the assay on SF-268; 63.7 µM (inactive) in the assay with LOX IMVI. Besides, the GI50 is > 100 µM (inactive) with CAKI-1; > 100 µM (inactive) with OVCAR-5; > 100 µM (inactive) in the assay with NCI-H23; over 100 µM in the assay on HCT-15; > 100 µM (inactive) in the assay with Malme-3M; > 100 µM (inactive) in the assay with COLO 205.
In the case of `O=C1c2ccccc2N2OC3(N4CCCC4)CCCC3C12c1ccccc1` (stereo not given), the GI50 in the assay with HL-60 is 43.3 µM (inactive); with IGROV-1, > 100 µM (inactive); in the assay with A498, > 100 µM (inactive); in the assay on K562, 76.6 µM (inactive); in the assay on A549, 68.5 µM (inactive); with SF-268, > 100 µM (inactive). Further, the GI50 in the assay on SK-MEL-5 is 61.4 µM (inactive); in the assay on NCI-H23, > 100 µM (inactive); with HCT-15 it was over 100 µM; in the assay with Malme-3M it was > 100 µM (inactive); in the assay on COLO 205 it was > 100 µM (inactive).
Consider `COc1cccc2c(SCC(=O)Nc3ccccc3-c3ccccc3NC(=O)CSc3c4ccccc4nc4c(OC)cccc34)c3ccccc3nc12`, for which the GI50 is 9.93 µM (inactive) in the assay on HL-60; 43.1 µM (inactive) with IGROV-1; > 100 µM (inactive) in the assay on NCI-H460; 74.3 µM (inactive) in the assay on K562; > 100 µM (inactive) in the assay with A549; 45.4 µM (inactive) in the assay with SF-268. Moreover, the GI50 with SK-MEL-5 is > 100 µM (inactive); with OVCAR-5, > 100 µM (inactive); in the assay on NCI-H23, > 100 µM (inactive); in the assay with HCT-15, over 100 µM; with COLO 205, > 100 µM (inactive).
On to `CCOC(=O)c1cnc2[nH]c(=O)c3ccccc3n2c1=O`, for which the GI50 in the assay on HL-60 is 85.5 µM (inactive); in the assay with IGROV-1, > 100 µM (inactive); with NCI-H460 it was > 100 µM (inactive); with K562, 65 µM (inactive); in the assay on A549 it was > 100 µM (inactive); in the assay on SF-268 it was 94.6 µM (inactive). The GI50 with LOX IMVI is > 100 µM (inactive); in the assay on SK-MEL-5 it was > 100 µM (inactive); in the assay on CAKI-1, > 100 µM (inactive); in the assay on OVCAR-5, > 100 µM (inactive); with NCI-H23, > 100 µM (inactive); in the assay on HCT-15 it was over 100 µM. The GI50 in the assay with Malme-3M and in the assay with COLO 205 was > 100 µM (inactive) throughout.
Take `COc1ccc2nc3cc(Cl)ccc3c(Sc3ccc([N+](=O)[O-])cc3C)c2c1`: the GI50 in the assay on IGROV-1, in the assay on A498, in the assay on NCI-H460, in the assay on K562, in the assay with A549 and with SF-268 was > 100 µM (inactive) throughout. Besides, the GI50 in the assay on LOX IMVI is > 100 µM (inactive); with SK-MEL-5, > 100 µM (inactive); in the assay on CAKI-1, > 100 µM (inactive); in the assay with OVCAR-5, > 100 µM (inactive); in the assay on NCI-H23 it was > 100 µM (inactive); with HCT-15 it was over 100 µM. In addition, the GI50 is > 100 µM (inactive) in the assay on Malme-3M and 4.06 µM (inactive) with COLO 205.
In the case of `NC1=NS(=O)(=O)Nc2nc(-c3ccc(Cl)cc3)c(-c3ccc(Cl)cc3)nc21`, the GI50 in the assay on HL-60 was > 100 µM (inactive); with IGROV-1 it was > 100 µM (inactive); with NCI-H460 it was > 100 µM (inactive); in the assay on K562, 34 µM (inactive); in the assay with A549, > 100 µM (inactive); in the assay with SF-268, > 100 µM (inactive). For the same molecule, the GI50 was 29.3 µM (inactive) with LOX IMVI; > 100 µM (inactive) with SK-MEL-5; > 100 µM (inactive) with CAKI-1; > 100 µM (inactive) in the assay on OVCAR-5; > 100 µM (inactive) with NCI-H23; > 100 µM (inactive) in the assay with Malme-3M. For the same molecule, the GI50 in the assay with COLO 205 is > 100 µM (inactive).
In the case of `CC1=C(C(=O)Nc2c(C)cccc2C)C(c2ccc3c(c2)OCO3)C(C(=O)Nc2c(C)cccc2C)=C(C)N1`, the GI50 is 16.3 µM (inactive) in the assay with HL-60; 4.2 µM (inactive) in the assay with IGROV-1; 18.5 µM (inactive) in the assay with NCI-H460; 13.4 µM (inactive) with K562; 19.7 µM (inactive) in the assay on A549; 19.4 µM (inactive) in the assay with SF-268. Further, the GI50 was 13.7 µM (inactive) with LOX IMVI; 25.1 µM (inactive) in the assay on CAKI-1; 19.1 µM (inactive) in the assay on OVCAR-5; 16.1 µM (inactive) in the assay on NCI-H23; 20.2 µM (inactive) in the assay with Malme-3M; 21.9 µM (inactive) in the assay with COLO 205.
In the case of `CCCCCC(CN1CCOCC1)C(=O)/C=C/c1ccccc1` (stereo not given), the GI50 with HL-60 was 1.85 µM (inactive); with IGROV-1, 3.37 µM (inactive); with NCI-H460 it was 2.77 µM (inactive); in the assay on K562 it was 2.16 µM (inactive); in the assay on A549, 3.3 µM (inactive); with SF-268 it was 1.94 µM (inactive). Further, the GI50 in the assay on LOX IMVI was 1.37 µM (inactive); in the assay with SK-MEL-5, 1.53 µM (inactive); with OVCAR-5, 2.63 µM (inactive); in the assay with NCI-H23 it was 3.36 µM (inactive); with HCT-15, 2.03 µM; in the assay on Malme-3M it was 2.1 µM (inactive). The GI50 with COLO 205 is 3.77 µM (inactive).
Consider `CCN(CC)CCCCC1CCN(CC(=O)N2c3ccccc3NC(=O)c3ccccc32)CC1`, for which the GI50 with HL-60, in the assay on A498, with K562, in the assay on A549, in the assay with SF-268 and with SK-MEL-5 was > 100 µM (inactive) in each case. The GI50 in the assay with CAKI-1 is > 100 µM (inactive); in the assay with NCI-H23, 55.6 µM (inactive); in the assay with Malme-3M, 81.5 µM (inactive); in the assay on COLO 205, > 100 µM (inactive).
For the molecule `[N-]=[N+]=NC1C(Cl)C(=O)NC(=O)N1[C@H]1C[C@H](O)[C@@H](CO)O1` (stereo not given in full), the GI50 in the assay with HL-60, with IGROV-1, in the assay on A498, in the assay on NCI-H460, in the assay on K562 and with A549 was > 100 µM (inactive) throughout. The GI50 was > 100 µM (inactive) in the assay on LOX IMVI; > 100 µM (inactive) in the assay with CAKI-1; > 100 µM (inactive) in the assay with OVCAR-5; > 100 µM (inactive) in the assay with NCI-H23; 13.3 µM (inactive) with Malme-3M; > 100 µM (inactive) in the assay on COLO 205.
For the molecule `CC(C)C(C(=O)N1CCC[C@@H]1C(=O)OCc1ccccc1)N(C)C(=O)C(C(C)C)N(C)C(=O)[C@H](Cc1ccccc1)N(C)C(=O)[C@H](NC(=O)OC(C)(C)C)C(C)C` (stereo not given in full) (Boc-[dV][NMeF][ξNMeV][ξNMeV][dP]-OBn), the GI50 was 4.12 µM (inactive) in the assay on HL-60; > 100 µM (inactive) in the assay with IGROV-1; > 100 µM (inactive) with A498; > 24.3 µM (inactive) with NCI-H460; 13.7 µM (inactive) in the assay on K562; 6.55 µM (inactive) in the assay with A549. Further, the GI50 with SF-268 was > 86.1 µM (inactive); with LOX IMVI, > 60.3 µM (inactive); in the assay on SK-MEL-5, 14.9 µM (inactive); in the assay on OVCAR-5, > 100 µM (inactive); in the assay on NCI-H23 it was > 81.3 µM (inactive); in the assay on HCT-15, over 30.9 µM. In addition, the GI50 in the assay with Malme-3M was > 89.5 µM (inactive); with COLO 205 it was > 100 µM (inactive).
